Results taken from US12600726B2, “Antagonists of the muscarinic acetylcholine receptor M4” (Vanderbilt University, priority 2017, dated 2026).

Tests used:
[1] = target: T1, Rat M4 (Rattus norvegicus, UniProt P08485); assay: mAChR M4 cell-based functional calcium flux assay (rat M4/Gqi5/CHO cells); details: for Emin (rat M4): % ACh maximum at 30 μM
T1 construct: expressed in transfected cells; host or cells: CHO-K1 (ATCC), stably expressing M4 and Gqi5
T1 sequence (P08485 1-478): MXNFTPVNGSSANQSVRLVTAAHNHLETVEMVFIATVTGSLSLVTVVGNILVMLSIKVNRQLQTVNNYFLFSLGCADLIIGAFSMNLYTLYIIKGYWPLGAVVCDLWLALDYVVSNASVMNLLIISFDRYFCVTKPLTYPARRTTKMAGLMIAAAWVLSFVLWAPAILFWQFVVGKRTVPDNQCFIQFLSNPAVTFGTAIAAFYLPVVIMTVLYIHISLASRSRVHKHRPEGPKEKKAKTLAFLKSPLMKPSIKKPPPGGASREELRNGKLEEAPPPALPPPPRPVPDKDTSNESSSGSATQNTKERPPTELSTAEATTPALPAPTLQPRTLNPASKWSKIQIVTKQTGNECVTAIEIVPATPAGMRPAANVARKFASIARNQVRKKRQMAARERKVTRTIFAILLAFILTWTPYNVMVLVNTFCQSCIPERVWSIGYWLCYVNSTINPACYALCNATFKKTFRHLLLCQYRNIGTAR
In short: (§1)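 CHO-K1 cells stably co-expressing M4 of the given species with chimeric Gqi5 were loaded with Fluo-4 AM and read for calcium flux. Compounds (10-point, 1:3 dilutions) were added first, followed by an acetylcholine EC20 at 143 s and an EC80 at 268 s. IC50 reflects the concentration-dependent fall in the EC80 response, fitted with a four-parameter logistic.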

[2] = target: T2, Human M4 (Homo sapiens, UniProt P08173); assay: mAChR M4 cell-based functional calcium flux assay (human M4/Gqi5/CHO cells); details: for Emin (human M4): % ACh maximum at 30 μM; for IC50: decrease of the response to an EC80 concentration of acetylcholine
T2 construct: expressed in transfected cells; host or cells: CHO-K1 (ATCC), stably expressing M4 and Gqi5
T2 sequence (P08173 1-479): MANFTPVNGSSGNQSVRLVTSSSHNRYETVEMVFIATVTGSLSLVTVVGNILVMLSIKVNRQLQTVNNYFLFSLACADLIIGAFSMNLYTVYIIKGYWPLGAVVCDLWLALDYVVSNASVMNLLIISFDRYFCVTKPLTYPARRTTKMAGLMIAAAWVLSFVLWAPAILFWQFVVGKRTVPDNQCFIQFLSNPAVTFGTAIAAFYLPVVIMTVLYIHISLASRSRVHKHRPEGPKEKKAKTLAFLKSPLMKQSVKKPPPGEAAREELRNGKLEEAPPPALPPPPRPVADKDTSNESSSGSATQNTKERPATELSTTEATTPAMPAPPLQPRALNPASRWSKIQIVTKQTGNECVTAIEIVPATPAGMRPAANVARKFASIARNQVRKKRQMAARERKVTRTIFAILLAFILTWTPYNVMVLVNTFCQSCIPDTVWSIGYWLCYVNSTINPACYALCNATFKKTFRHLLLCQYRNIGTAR
In short: as §1

[3] = decrease of the response to an EC80 concentration of acetylcholine

Emin (rat M4) [1] | IC50 [1, 3] | Emin (human M4) [2] | IC50 [2] | IC50 ([1]; cells printed in μM, decrease of the EC80 acetylcholine response) | SMILES
4% | 0.00753 µM | 6% | 2.04 nM | – | CC(=O)Nc1ccc(-c2ccc(NC[C@@H]3CC34CCN(CCC(C)(C)C)CC4)nn2)cc1 [Compound 111, N-[4-[6-[[(2R)-6-(3,3-dimethylbutyl)-6-azaspiro[2.5]octan-2-yl]methylamino]pyridazin-3-yl]phenyl]acetamide]
5% | 0.223 µM | 2% | 25.7 nM | – | Cc1cccnc1CN1CCC2(CC1)C[C@H]2CNc1ccc(-c2cc(F)ccc2Cl)nn1 [Compound 114, 6-(2-chloro-5-fluoro-phenyl)-N-[[(2R)-6-[(3-methyl-2-pyridyl)methyl]-6-azaspiro[2.5]octan-2-yl]methyl]pyridazin-3-amine]
3% | 0.152 µM | 2% | 69.8 nM | – | Fc1ccc(Cl)c(-c2ccc(NC[C@@H]3CC34CCN(CC35CC6CC(CC(C6)C3)C5)CC4)nn2)c1 [Compound 115, N-[[(2R)-6-(1-adamantylmethyl)-6-azaspiro[2.5]octan-2-yl]methyl]-6-(2-chloro-5-fluoro-phenyl)pyridazin-3-amine]
4% | 0.015 µM | 5% | 11.9 nM | – | CC(=O)Nc1ccc(-c2nnc(NCC3CC34CCN(CCC(C)(C)C)CC4)c(C)c2C)cc1 (stereo not shown) [Compound 116, N-[4-[6-[[6-(3,3-dimethylbutyl)-6-azaspiro[2.5]octan-2-yl]methylamino]-4,5-dimethyl-pyridazin-3-yl]phenyl]acetamide]
4% | 0.0137 µM | 5% | 19.7 nM | – | CC(=O)Nc1ccc(-c2nnc(NCC3CC34CCN(CC3CCCCC3)CC4)c(C)c2C)cc1 (stereo not shown) [Compound 117, N-[4-[6-[[6-(cyclohexylmethyl)-6-azaspiro[2.5]octan-2-yl]methylamino]-4,5-dimethyl-pyridazin-3-yl]phenyl]acetamide]
5% | 0.0167 µM | 4% | 5.85 nM | – | CC(=O)Nc1ccc(-c2ccc(NC[C@@H]3CC34CCN(CC3CCCCC3)CC4)nn2)cc1 [Compound 118, N-[4-[6-[[(2R)-6-(cyclohexylmethyl)-6-azaspiro[2.5]octan-2-yl]methylamino]pyridazin-3-yl]phenyl]acetamide]
5% | 0.0165 µM | 3% | 8.18 nM | – | CC(=O)Nc1ccc(-c2ccc(NC[C@@H]3CC34CCN(CC3CCCCCC3)CC4)nn2)cc1 [Compound 119, N-[4-[6-[[(2R)-6-(cycloheptylmethyl)-6-azaspiro[2.5]octan-2-yl]methylamino]pyridazin-3-yl]phenyl]acetamide]
3% | 0.0357 µM | 4% | 28.7 nM | – | CC(=O)Nc1ccc(-c2ccc(NC[C@@H]3CC34CCN(CC35CC6CC(CC(C6)C3)C5)CC4)nn2)cc1 [Compound 120, N-[4-[6-[[(2R)-6-(1-adamantylmethyl)-6-azaspiro[2.5]octan-2-yl]methylamino]pyridazin-3-yl]phenyl]acetamide]
9% | 0.0437 µM | 3% | 68.2 nM | – | CC(=O)Nc1ccc(-c2ccc(NC[C@@H]3CC34CCN(CC3CCOCC3)CC4)nn2)cc1 [Compound 121, N-[4-[6-[[(2R)-6-(tetrahydropyran-4-ylmethyl)-6-azaspiro[2.5]octan-2-yl]methylamino]pyridazin-3-yl]phenyl]acetamide]
12% | 0.32 µM | 12% | 1410 nM | – | CC(=O)Nc1ccc(-c2ccc(NC[C@@H]3CC34CCN(Cc3ncccc3C)CC4)nn2)cc1 [Compound 122, N-[4-[6-[[(2R)-6-[(3-methyl-2-pyridyl)methyl]-6-azaspiro[2.5]octan-2-yl]methylamino]pyridazin-3-yl]phenyl]acetamide]
4% | 0.207 µM | 5% | 575 nM | – | CC(=O)Nc1ccc(-c2ccc(NC[C@@H]3CC34CCN(Cc3ccc(F)cc3)CC4)nn2)cc1 [Compound 123, N-[4-[6-[[(2R)-6-[(4-fluorophenyl)methyl]-6-azaspiro[2.5]octan-2-yl]methylamino]pyridazin-3-yl]phenyl]acetamide]
4% | 0.0563 µM | 4% | 34.3 nM | – | CC(=O)Nc1ccc(-c2ccc(NC[C@H]3CC34CCN(CCC(C)(C)C)CC4)nn2)cc1 [Compound 124, N-[4-[6-[[(2S)-6-(3,3-dimethylbutyl)-6-azaspiro[2.5]octan-2-yl]methylamino]pyridazin-3-yl]phenyl]acetamide]
28% | – | 14% | 1810 nM | ≥ 10 µM | CC(=O)Nc1ccc(-c2ccc(NC[C@H]3CC34CCN(CC3CCOCC3)CC4)nn2)cc1 [Compound 126, N-[4-[6-[[(2S)-6-(tetrahydropyran-4-ylmethyl)-6-azaspiro[2.5]octan-2-yl]methylamino]pyridazin-3-yl]phenyl]acetamide]
